Where two headings read alike, the source gives them in different places.
Assays:
[1] = mouse, GSH pretreatment; cited from earlier work
[2] = 5 g oral per day, two female patients who survived 1 year; cited from earlier work
[3] = human, in vivo, iv; cited from earlier work
[4] = in vivo, po; for share absorbed and intracellular: 1.5 hours
From the text: It would be possible to follow the two groups and to compare the rates of progression to determine statistically significant differences.

microglial cells = conditions: microglia, NO and superoxide generated simultaneously; cited from earlier work
[5] = test system: mouse cytotoxic T-lymphocytes; conditions: i.p. injection on the third day post immunization; cited from earlier work
[6] = Phase I/II clinical trial of oral GSH in HIV positive patients, PBMC intracellular GSH; format: in vivo, human
From the text: Early clinical trials determined the pharmacokinetics of absorption and intracellular distribution in Peripheral Blood Mononuclear Cells in asymptomatic HIV (+) patients, using three doses of 1 gm, 2 gms and 3 gms/day over a 4 week period, with two weeks of baselines, plus two weeks of post drug exposure.

[7] = far advanced AIDS
From the text: A clinical study on far advanced AIDS patients who had exhausted the HAART combinations and averaged 300,000 copies (HIV RNA PCR) and 50 CD4+ cells/per cubic mm.

HIV-1 = conditions: in vitro, cited from earlier work
[8] = rat, i.v. bolus, cited from earlier work
HIV = conditions: U1 cells, in the absence of cytotoxic or cytostatic effects; cited from earlier work
[9] = 1,200 mg/day i.v., compared to baseline; cited from earlier work
[10] = cited from earlier work
[11] = test system: high-affinity component of mitochondrial GSH transport; conditions: stimulated by ATP; cited from earlier work
[12] = infusion 10 mg/min for 120 min, cited from earlier work
HIV-1 LTR = conditions: Jurkat cells, synergistic induction by TNFα and Tat; cited from earlier work
[13] = rats, LPS; cited from earlier work
[14] = asymptomatic HIV (+) patients, 1, 2 and 3 gms/day
[15] = high end of dose range 50-300 mmol/kg
[16] = low end of dose range 50-300 mmol/kg

Question: What does the source list for `N[C@@H](CCC(=O)N[C@@H](CS)C(=O)NCC(=O)O)C(=O)O` [GSH, gamma-glutamyl-cysteinyl-glycine]?
Answer: morphine-induced lethality [1]: protects against morphine-induced lethality; tumor growth [2]: regression or stagnation of their tumor growth; half-life [3]: 14.1 ± 9.2 min; share absorbed and intracellular ([4]; human): 70-80%; toxicities [4]: no significant toxicities; share absorbed and intracellular [4]: 80%; peroxynitrite formation (microglial cells): significantly decreased; augmentation of cytotoxic activity [5]: 5 fold; relation of dose to PBMC GSH ([6]; 1 gm, 2 gms and 3 gms/day): dose response relationship; completion of absorption and distribution within the PBMC [6, 14]: 60 min; start of absorption and distribution within the PBMC after ingestion [6, 14]: 30 min; toxicities ([6]; asymptomatic HIV (+) patients, 4 week period): no evidence of toxicities; survival after starting on GSH ([7]; 75 mg/kg in two divided doses, four patients who followed the regimen): 3 years; CD4+ cell counts ([7]; four patients): did not restore their CD4+ cell counts to any extent; duration of suppression of HIV production (HIV-1; intracellular GSH in infected monocytes raised to the high end of the normal range): about 35 days; HIV-1 p24 antigen levels and reverse transcriptase activity (HIV-1; single pulse exposure): sustained, concentration-dependent decrease; apparent volume of distribution [8, 15]: 1.33 L/kg; half-life of the elimination phase [8, 15]: 11.4 min; rate constant for drug elimination and plasma clearance [8, 15]: 2.44 mL/min; apparent volume of distribution [8, 16]: 3.78 L/kg; half-life of the elimination phase [8, 16]: 52.4 min; rate constant for drug elimination and plasma clearance [8, 16]: 0.84 mL/min; induction of HIV expression mediated by PMA, TNF-α or IL-6 (HIV): suppressed in a dose-dependent fashion; hematologic parameters (hematocrit, hemoglobin, blood count) [9]: significantly increase; systolic and diastolic blood pressure ([10]; 1,844 mg i.v. bolus, hypertensive patients and non-hypertensive diabetics, within ten minutes): rapid and significant decrease; blood pressure values ([10]; 3,699 mg dose, normal subjects): significant decrease; Km [11]: ~60 µM; V max [11]: approximately 0.5 nM/min per mg of protein; insulin clearance and action [12]: No effect was seen; glucose-induced insulin secretion ([12]; patients with IGT): significantly potentiated

Question: Which “HIV-1 LTR-mediated gene expression” value (HIV-1 LTR) does the source give for `CC(=O)N[C@@H](CS)C(=O)O` [NAC, N-acetyl-L-cysteine] here?
Answer: Its value is “significantly suppressed”.

Question: What about the “induction of HIV expression mediated by PMA, TNF-α or IL-6” value (HIV) of the same compound?
Answer: Its value is “suppressed in a dose-dependent fashion”.

Question: What about the “decrease of lung lavage neutrophil count” value [13] of the same compound?
Answer: Its value is “six fold”.

Question: For `N/C(=N\O)c1cc(O)c(O)c(O)c1` [TD, Trimidox], which “HIV-1 LTR-mediated gene expression” value (HIV-1 LTR) is on record?
Answer: Its value is “significantly suppressed”.

Question: With GSH ester [GSE] as the compound, how does the “induction of HIV expression mediated by PMA, TNF-α or IL-6” value (HIV) read?
Answer: Its value is “suppressed in a dose-dependent fashion”.

Source: patent US9901611B2 (Molecular Defenses Corporation, priority 2015, dated 2018)
